This passage reports melting point results from a melting point compilation (Tetko et al.; mined from patent text by program, amines drawn as free bases though some values may be those of a salt).

With `CN(c1ccc2ccccc2c1)c1nc(=O)c2cccnc2s1`, the melting point lay in the range of 230 to 232 °C. For `CC1=C(CCC(C)(O)C#CCO)C(C)(C)CCC1` (centres undefined), the melting point is 83 to 84 °C. The same measure for `Cc1nc(-c2cnc3[nH]cc(C(=O)N[C@@H](C(=O)N4CC(C#N)C4)C(C)(C)C)c3n2)cn1-c1cc(F)cc(F)c1`: 187 to 190 °C; for `COc1ccc(S(=O)(=O)N2c3ccc(Br)cc3-c3ccccc3C2C)cc1C` (centres undefined): 219 to 221 °C; for `COc1ccc(NC(=O)c2ccc(F)c(F)c2)cc1NS(=O)(=O)c1ccc(N)cc1`: 229 to 231 °C. With `O=C1c2cc(O)ccc2NCC1Cc1ccccc1` (centres undefined), the melting point is 143 to 149 °C. The same measure for `CCCOc1ccc(S(=O)(=O)Cl)cc1C(N)=O`: 122 to 129 °C. The same measure for `COC(=O)N1CCc2ccc3cc[nH]c3c2CC1`: 169 to 171 °C; for `COC(=O)[C@@H]1C[C@H](C(=O)OC(C)(C)C)N(C(=O)CNC(=O)Nc2ccc(Cl)cc2)[C@@H]1c1ccccc1` (racemic): 125 °C.

For `COc1cc(C(=O)O)cc(OC)c1CC(C)C`, the melting point is 160 to 162 °C.

The molecule `COc1cc2c(cc1OCc1ccccc1)CCCNC2=O` came in with a melting point of 192 to 193 °C. The same measure for `COCOc1ccc(C(C)=O)c(O)c1`: 38 to 39 °C. Then `NC1=NC(c2ccc(OC(F)F)cc2)(c2cccc(-c3cccnc3F)c2)C2=NCC3(CCC3)CN12` (centres undefined), with 220 to 226 °C; and `Cc1cc(-c2cccc(C3=Nc4cc(O)c(-c5ccccc5F)cc4NC(=O)C3)c2)on1`, with 237 °C; and `COC(=O)c1cnc(Cl)cc1NN`, with 163 °C. With `CCCc1ccc2nc(C#N)c(S(N)(=O)=O)n2n1`, the melting point was 237 to 244 °C. Molecule `CCCSC1=NSc2cc(C)cnc2N1Cc1ccc(-c2ccccc2-c2nnn[nH]2)cc1` registered a melting point of 158 to 160 °C.

As to `CC(=O)NCCC1CCc2ccc3ocnc3c21` (centres undefined), the melting point was in the range of 89 to 92 °C. With `CCCCCCCCCCCCCCCCCC(=O)N1CCCCc2nc(-c3ccccc3)sc21`, the melting point was in the range of 38 to 40 °C. Then `CS(=O)(=O)C1(F)Cc2cc(Cl)ccc2C1=O` (centres undefined), with 150 °C; and `CC(=O)N(C(C)=O)c1ccc(Br)c([N+](=O)[O-])c1OCc1ccccc1`, with 148 °C; and `COc1ccc2c(c1)C1=C(SCC3(CCN(CC(O)COc4ccc(F)cc4)CC3)O1)C(=O)C2=O` (centres undefined), with 80 to 81 °C. Then `CCCCCCN1N=C(c2ccc(OC)c(OC)c2)C2CC=CCC2C1=O` (centres undefined), with 74 to 75 °C; and `Cc1nc(-n2cc(Cl)ccc2=O)sc1C(=O)NCc1ccccc1`, with 173 to 174 °C. Then `Cc1oncc1C(=O)N1CCCC1`, with 51 to 53 °C. `CC(C)(C)OC(=O)CON1C(=O)c2ccccc2C1=O` gave a melting point of 140 to 141 °C. Then `CCc1nc(-c2ccc(OCCC3CCN(c4ccc(C)nn4)CC3)cc2)no1`, with 125 °C; and `COc1ccc2c(C(=O)O)ccc(OC)c2c1`, with 227 to 229 °C; and `CCC1=C(C(=O)OC)C(c2ccc(F)cc2Cl)N=C(c2cscn2)N1` (centres undefined), with 144 to 147 °C. The same measure for `O=c1nc(-c2cccc(CN3CCC(O)(c4ccc(Cl)cc4)CC3)n2)sc2ccccc12`: 151 to 153 °C. As to `CCCCCC(Oc1ccc(C2=CCCCC2)cc1)C(=O)NC(C)C` (centres undefined), the melting point lay within 86 to 88 °C. Then `CC(=O)OC1CC2CCC3C(CCC4(C)C(O)C(N5CCCC5)CC34)C2(C)CC1N1CCOCC1` (centres undefined), with 112 to 118 °C; and `O=C(NC(=O)C(c1ccccc1)c1ccccc1)OCCCCc1ccccc1`, with 118 °C; and `CC(C)NC(=C1Sc2ccccc2C1=O)c1ccccc1`, with 112 to 113 °C. Then `CC(C)(C)c1cc(SCN2C(=O)c3ccccc3C2=O)cc(C(C)(C)C)c1O`, with 151 to 153 °C; and `O=C(C=Cc1ccccc1O)C=Cc1ccccc1O`, with 155 °C. `CC1=NN(C)C(=O)C1=Cc1ccc(Cl)cc1Cl` had a melting point of 128 °C. Then `COc1cccc(O)c1-c1ccc(C[C@H](NC(=O)c2c(Cl)cccc2Cl)C(=O)O)cc1`, with 224 °C. `COc1ccc(N=C(C#Cc2ccccc2)N2CCN(Cc3ccc(C)cc3)CC2)cc1Cl` yielded a melting point of 113 °C. The same measure for `CC(C)C(=O)N1CCC(CNc2ccc(Cl)cc2C(=O)Nc2ccc(Cl)cn2)CC1`: 99 to 101 °C; for `COc1cc2c(cc1F)C1(CO2)C(=O)Nc2ccccc21` (centres undefined): 222 to 225 °C; for `CN(C)C=CC(=O)c1cccc(NC(=O)C2CCC2)c1`: 155 to 157 °C. Then `CN1C(=O)C2C3C=CC(CC3)C2S1=O` (centres undefined), with 118 to 120 °C; and `CN1C(=O)CC[C@]2(C)c3ccc(Sc4ccc5cc(F)ccc5n4)cc3CC[C@@H]12`, with 152 to 155 °C. With `CC1Cc2c(cc(O)cc2C(=O)O)O1` (centres undefined), the melting point lay in the range of 225 to 227 °C.

For `O=C(NCc1ccc(Cl)nc1)C(Cl)=NNc1ccc(C(F)(F)F)cc1`, the melting point lay in the range of 172 to 173 °C. The same measure for `CN(C)C/C=C\c1ncccc1OCCO`: 71 °C; for `CN(C)C(=S)SC(C[N+](=O)[O-])c1ccco1` (centres undefined): 67 to 68 °C; for `Cc1ccc(OCCN2CCN(c3cc(Cl)nnc3Cl)CC2)cc1`: 95 to 96 °C. For the molecule `CS(=O)(=O)c1ccc(/C(=C\C2CCCCCC2)C(=O)Nc2nccs2)cc1`, the melting point lay within 163 to 165 °C.

Take `Cc1c(NC(=O)c2ccc(-c3ccc(F)cc3)cc2)ccc2cc(CN3CCC(CCCC(=O)N4CCCCC4)CC3)cnc12`: the melting point was in the range of 154 to 156 °C. Take `COc1c(C(=O)O)ccc(Cl)c1SC`: the melting point was 121 to 123 °C. The same measure for `N#Cc1cc(NC(=O)c2ccn(-c3ccc(F)cc3)c2)ccc1N1CCN(C2CCOCC2)CC1`: 240 °C; for `CN1CCC(=O)C(C(c2ccccc2)c2ccccc2)C1` (centres undefined): 127 to 128 °C; for `Cc1ccc2c(C3=C(c4cn(C)c5ccccc45)C(=O)NC3=O)cn(C)c2c1`: 264 to 266 °C. For the molecule `COC(=O)c1ccc(OC)cc1-c1ccc(C(F)(F)F)cc1`, the melting point lay within 93 to 94 °C. `CCCn1c(=O)n(C2CCN(C(=O)OC(C)(C)C)CC2)c2ccccc21` returned a melting point of 102 to 105 °C. Turning to `CCCCc1ccc(C(=O)C(CC(=O)N[C@@H](Cc2cc(F)cc(F)c2)[C@H](O)CNCc2cccc(CC)c2)Cc2ccccc2)cc1` (some centres undefined), the melting point was in the range of 42 to 45 °C. Take `COc1cc(C(=O)NC2CN(C)C2)ccc1Nc1ncc2c(n1)N(C1CCCC1)CC(F)(F)C(=O)N2C`: the melting point fell in the range of 157 to 162 °C. In turn, `N#Cc1cc2c(s1)-c1ccccc1OC2c1ccccc1` (centres undefined) returned a melting point of 138 to 140 °C. The same measure for `CCCCN1C(=O)CC(Sc2cc(C(C)(C)C)c(O)c(C(C)(C)C)c2)C1=O` (centres undefined): 80 to 85 °C; for `O=S1(=O)N=C(NCc2ccccc2)Nc2cc(Cl)sc21`: 223 to 226 °C. In the case of `CCOCC(COCC)Oc1ccc(/C=C/CO)c(Oc2ncc(C(F)(F)F)cc2Cl)c1`, the melting point lay within 52.5 to 54.5 °C. `CCCCCC(CCN1C(=O)NC2CC(=O)CC21)OC(C)=O` (centres undefined) displayed a melting point of 85 to 86 °C.

The molecule `COc1ccc(C(O)Cc2c(Cl)cccc2Cl)cc1OC1CCCC1` (centres undefined) returned a melting point of 87 to 89 °C.

The molecule `CCCOc1ccccc1-c1nc(O)cc(CC)n1` had a melting point of 97 to 98.5 °C. With `Nc1c(N=O)c(=O)n(CCC2CCCCC2)c(=O)n1CCC1CCCCC1`, the melting point is 231 to 233 °C. The molecule `COC(=O)C1CN=CN(C)C1` (centres undefined) showed a melting point of 93 to 95 °C. Then `CC(C)n1nc(-c2c(-c3ccccc3)nn3ccc(OC4CCOCC4)cc23)ccc1=O`, with 210 to 211 °C.

The molecule `CC1(C)CC(=O)OC(NCCCCN2CCN(c3ncccn3)CC2)N1` (centres undefined) yielded a melting point of 124 to 126 °C. The same measure for `OCc1ccc(-c2cc3nccnc3[nH]2)cc1`: 284 to 285 °C; for `N#Cc1ccccc1-c1ccc(CC(NC(=O)Nc2ccccc2S(=O)(=O)N2CCCCC2)C(=O)O)cc1` (centres undefined): 140 °C; for `CCCc1c[nH]nc1OCCCc1cn(-c2ccc(C(F)(F)F)cn2)nc1CCC`: 127 to 128 °C. Then `CC(C#N)C(O)(Cn1cncn1)c1ccc(Cl)cc1Cl` (centres undefined), with 164 °C; and `COC(=O)C(C)(C)Oc1ccc(C(=O)CN2CCN(c3ccncc3)CC2)cc1`, with 88 to 90 °C; and `O=C(O)CC1=C(Cc2ccc3ccccc3c2)C(=O)CCC1`, with 78 to 80 °C. Then `CCOc1cc(-c2cc(C(F)F)n3ncc(C(=O)Nc4cccc(S(=O)(=O)NC(C)(C)CO)c4)c3n2)ccc1C(F)(F)F`, with 250 °C.

The molecule `CC(C)(C)OC(=O)N1CCC[C@@H]1C=C(Br)Br` came in with a melting point of 55 to 60 °C. The same measure for `O=C1CCCCN1CCC(=O)N1CCC(C2c3ncc(Br)cc3CCc3cc(Cl)cc(Br)c32)CC1` (single isomer, unassigned; (+)): 138 to 139 °C; for `CC1C(=O)NC(C)(C)N1C(=O)CNC(=O)CN1CC(O)CC1=O` (centres undefined): 218 to 220 °C. The same measure for `CN(C)C(C(=O)C1CCCCC1)C1(c2ccc(Cl)c(Cl)c2)CCC1` (centres undefined): 79 to 80 °C; for `Cc1cc(=O)[nH]nc1-c1ccc2c(c1)CCC1(CCN(C3CCC3)CC1)O2`: 270 to 272 °C; for `CC(C)(C)c1nc(-c2ccccc2)[nH]c1C(C)(C)C`: 156 to 158 °C.

As to `CCOC(=O)CC(=O)NNC(=O)c1cc2cccc(N(C)S(=O)(=O)c3cccs3)c2[nH]1`, the melting point lay in the range of 119 to 121 °C.

As for `CC(=O)ON(C(=O)NN(C)C)C1c2ccccc2Oc2ccccc21`, the melting point was in the range of 120 to 121 °C. In turn, `O=C(O)Cc1cc2c(c(C(=O)O)c1)NCCC2` came in with a melting point of 210 to 211 °C. Molecule `Cc1cnc(OCC(O)CNC(C)(C)C)c2cc(Cl)ccc12` (centres undefined) came in with a melting point of 116 to 117 °C. `CC(C)(CC(=O)O)C(=O)C(=O)O` registered a melting point of 134 to 135 °C. Molecule `CC1(C)CC(=O)C(Br)(Cc2ccc(Cl)cc2)C(Br)C1` (centres undefined) gave a melting point of 82 to 84 °C.
